Test results reported in US10934303B2, “Aryl ethene derivative and pharmaceutical composition containing same as active ingredient” (priority 2016, dated 2021).
Where two headings read alike, the source gives them in different places.

Legend:
[1] = system: ERRγ; type: cell-based
[2] = molecular target: GST-bound ERR alpha LBD (Homo sapiens (Human), UniProt P11474); conditions: TR-FRET, PGC1a coactivator; read-out: Binding Assay, IC50 ERRα
Description: (§2) The arylethene derivative of the present invention was sequentially added to a 384 well plate from a concentration of 10 μM to a final concentration of two-fold dilution. […] After all reagents were added, a reaction was carried out with gentle shaking at 20° C. for 1 hour, and after the reaction, a binding activity was measured by a TR-FRET method.

[3] = molecular target: GST-bound ER alpha ligand-binding domain (LBD) (Homo sapiens (Human), UniProt P03372); test: biochemical; conditions: TR-FRET, beta-estradiol 4 nM as agonist; read-out: Binding Assay, IC50 ERα
Description: as §2

[4] = molecular target: GST-bound ERR gamma ligand-binding domain (LBD) (Homo sapiens (Human), UniProt P62508); test: ERRγ binding assay (inverse agonist assay), TR-FRET; conditions: TR-FRET, PGC1a coactivator; read-out: Binding Assay, IC50 ERRγ
Description: 1) ERRγ Binding Assay (Inverse Agonist Assay)
as §2

[5] = 1 μM, 30 minutes, 37° C., NADPH
[6] = in vitro; type: in vitro ADME; parameters: Papp at 5 h: dose or concentration left out as unconfirmed; conditions: PBS pH 7.4, 25° C.; for Papp at 5 h: PAMPA, read-out: Permeability Pampa; for Permeability Pampa: 5 hours
Description: 3) Parallel Artificial Membrane Permeability Assay (PAMPA) Evaluation
PAMPA is a method which has been developed for testing cell membrane permeability of a material in a test tube, and has been performed using a lipid tri-layer PVDF membrane available from Corning Gentest (NY, US), the used reagents were all purchased from Sigma (MO, US). First, a test material is diluted in PBS (pH 7.4) to a final concentration of 10 mM, 300 mL of the solution is added to the bottom well of a 96-transwell equipped with a PVDF membrane, and 200 mL of PBS is added to the upper well. Then, a plate is reacted at 25° C. for 5 hours, 20 mL of the solution in each well is transferred to a new container, and 80 mL of acetonitrile containing an internal standard material (4 mM chloropropamide) is added thereto. A concentration of the material in the solution is analyzed using LC-MS/MS (ThermoFisher Scientific, MO, US), and the transmittance of the material is calculated according to the equation reported in the reference document.

[7] = 1 μM, 30 minutes, 37° C., NADPH; remark: listed apart in the source
[8] = molecular target: hERG channel (Homo sapiens (Human), UniProt Q12809); conditions: read-out: hERG IC50; fluorescence polarization assay
[9] = 1 μM, 30 minutes, 37° C., NADPH; remark: listed apart in the source
[10] = molecular target: CYP3A4 (Homo sapiens (Human), UniProt P08684); test: Cytochrome P450 activity inhibition, CYP3A4; type: in vitro ADME; conditions: 10 μM, human liver microsomes, Midazolam substrate
Description: (§1) 1) Cytochrome P450 (CYP450) Activity Inhibition Evaluation

[11] = molecular target: CYP2C9 (Homo sapiens (Human), UniProt P11712); test: Cytochrome P450 activity inhibition, CYP2C9; type: in vitro ADME; conditions: 10 μM, human liver microsomes, Diclofenac substrate
Description: as §1

[12] = molecular target: CYP2C19 (Homo sapiens (Human), UniProt P33261); test: Cytochrome P450 activity inhibition, CYP2C19; type: in vitro ADME; conditions: 10 μM, human liver microsomes, S-mephenytoin substrate
Description: as §1

[13] = molecular target: CYP1A2 (Homo sapiens (Human), UniProt P05177); test: Cytochrome P450 activity inhibition, CYP1A2; type: in vitro ADME; conditions: 10 μM, human liver microsomes, Phenacetin substrate
Description: as §1

[14] = molecular target: CYP2D6 (Homo sapiens (Human), UniProt P10635); test: Cytochrome P450 activity inhibition, CYP2D6; type: in vitro ADME; conditions: 10 μM, human liver microsomes, Dextromethorphan substrate
Description: as §1

[15] = 1 μM, 30 minutes, 37° C., NADPH; remark: listed apart in the source
Description: 2) Microsomal Stability Evaluation
Four liver microsomes (Human, Dog, Rat, Mouse 0.5 mg/ml) with a 0.1 M phosphate buffer solution (pH 7.4), and the arylethene derivative of the present invention were added to a concentration of 1 μM, culturing was performed at 37° C. for 5 minutes in advance, a NADPH regeneration system solution was added thereto, and culturing was performed at 37° C. for 30 minutes. Thereafter, in order to complete the reaction, an acetonitrile solution containing an internal standard material (chlorpropamide) was added thereto, centrifugation (14,000 rpm, 4° C.) was performed for 5 minutes, and a supernatant was injected into a LC-MS/MS system to analyze the substrate drug, thereby evaluating metabolism stability to the arylethene derivative of the present invention.

[16] = activity relative to reference compound GSK5182, 10 μM

Chain of GST-bound ERR gamma ligand-binding domain (LBD) (P62508 233-457): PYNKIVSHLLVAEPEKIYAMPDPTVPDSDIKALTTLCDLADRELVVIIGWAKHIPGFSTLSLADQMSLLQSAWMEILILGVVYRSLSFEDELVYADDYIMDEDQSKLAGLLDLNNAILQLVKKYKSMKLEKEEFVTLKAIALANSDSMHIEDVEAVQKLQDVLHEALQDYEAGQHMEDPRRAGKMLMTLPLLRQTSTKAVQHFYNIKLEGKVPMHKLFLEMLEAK
Chain of GST-bound ERR alpha LBD (P11474 193-421): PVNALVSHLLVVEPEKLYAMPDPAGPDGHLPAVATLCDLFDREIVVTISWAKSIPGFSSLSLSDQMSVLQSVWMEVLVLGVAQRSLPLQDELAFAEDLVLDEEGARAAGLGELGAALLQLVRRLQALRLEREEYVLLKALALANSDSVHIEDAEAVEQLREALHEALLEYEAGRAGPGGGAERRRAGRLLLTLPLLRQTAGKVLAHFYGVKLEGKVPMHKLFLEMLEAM
Chain of GST-bound ER alpha ligand-binding domain (LBD) (P03372 whole entry, looked up, the tested form may be a part): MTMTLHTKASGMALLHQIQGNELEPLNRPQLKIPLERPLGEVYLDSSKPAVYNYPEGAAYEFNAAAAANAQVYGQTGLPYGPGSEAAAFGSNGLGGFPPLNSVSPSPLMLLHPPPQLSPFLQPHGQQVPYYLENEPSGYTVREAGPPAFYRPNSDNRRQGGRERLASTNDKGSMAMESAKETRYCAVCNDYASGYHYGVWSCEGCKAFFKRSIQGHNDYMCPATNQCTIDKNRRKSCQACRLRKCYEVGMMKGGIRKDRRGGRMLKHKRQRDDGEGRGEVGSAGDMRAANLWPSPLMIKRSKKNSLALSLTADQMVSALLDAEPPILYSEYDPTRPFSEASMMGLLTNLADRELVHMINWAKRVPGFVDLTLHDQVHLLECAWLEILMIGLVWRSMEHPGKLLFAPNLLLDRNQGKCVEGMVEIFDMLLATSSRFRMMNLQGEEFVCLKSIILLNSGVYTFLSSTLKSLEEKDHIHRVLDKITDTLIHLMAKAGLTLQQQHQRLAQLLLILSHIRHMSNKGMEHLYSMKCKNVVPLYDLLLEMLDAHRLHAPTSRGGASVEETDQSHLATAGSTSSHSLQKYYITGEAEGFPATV
Chain of CYP2C9 (P11712 whole entry): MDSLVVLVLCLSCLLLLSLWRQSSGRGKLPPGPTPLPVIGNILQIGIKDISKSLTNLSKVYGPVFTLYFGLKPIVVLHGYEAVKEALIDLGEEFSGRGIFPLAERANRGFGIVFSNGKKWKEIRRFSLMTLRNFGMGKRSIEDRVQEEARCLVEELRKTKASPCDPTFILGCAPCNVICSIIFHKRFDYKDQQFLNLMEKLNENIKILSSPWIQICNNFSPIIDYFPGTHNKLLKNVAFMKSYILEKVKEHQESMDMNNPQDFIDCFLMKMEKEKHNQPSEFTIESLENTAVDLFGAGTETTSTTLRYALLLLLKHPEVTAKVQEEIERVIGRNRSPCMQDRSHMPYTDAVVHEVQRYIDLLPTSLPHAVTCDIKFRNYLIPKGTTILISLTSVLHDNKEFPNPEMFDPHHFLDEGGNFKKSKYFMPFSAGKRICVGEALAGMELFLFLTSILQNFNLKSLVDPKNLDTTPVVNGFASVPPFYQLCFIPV
Chain of CYP1A2 (P05177 whole entry): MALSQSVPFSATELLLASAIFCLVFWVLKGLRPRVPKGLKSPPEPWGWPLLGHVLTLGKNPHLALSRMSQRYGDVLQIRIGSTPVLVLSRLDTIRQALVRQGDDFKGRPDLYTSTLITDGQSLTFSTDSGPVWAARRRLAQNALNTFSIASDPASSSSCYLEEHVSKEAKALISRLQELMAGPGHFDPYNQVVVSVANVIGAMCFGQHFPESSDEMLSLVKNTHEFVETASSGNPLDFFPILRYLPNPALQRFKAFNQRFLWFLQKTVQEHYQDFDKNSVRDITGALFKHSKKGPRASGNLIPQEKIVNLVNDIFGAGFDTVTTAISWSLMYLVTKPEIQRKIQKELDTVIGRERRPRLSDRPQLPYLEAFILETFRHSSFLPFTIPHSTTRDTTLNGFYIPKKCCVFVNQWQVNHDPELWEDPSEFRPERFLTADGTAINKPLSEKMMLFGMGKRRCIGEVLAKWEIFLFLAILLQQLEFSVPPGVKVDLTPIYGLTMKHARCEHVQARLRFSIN
Chain of CYP3A4 (P08684 whole entry): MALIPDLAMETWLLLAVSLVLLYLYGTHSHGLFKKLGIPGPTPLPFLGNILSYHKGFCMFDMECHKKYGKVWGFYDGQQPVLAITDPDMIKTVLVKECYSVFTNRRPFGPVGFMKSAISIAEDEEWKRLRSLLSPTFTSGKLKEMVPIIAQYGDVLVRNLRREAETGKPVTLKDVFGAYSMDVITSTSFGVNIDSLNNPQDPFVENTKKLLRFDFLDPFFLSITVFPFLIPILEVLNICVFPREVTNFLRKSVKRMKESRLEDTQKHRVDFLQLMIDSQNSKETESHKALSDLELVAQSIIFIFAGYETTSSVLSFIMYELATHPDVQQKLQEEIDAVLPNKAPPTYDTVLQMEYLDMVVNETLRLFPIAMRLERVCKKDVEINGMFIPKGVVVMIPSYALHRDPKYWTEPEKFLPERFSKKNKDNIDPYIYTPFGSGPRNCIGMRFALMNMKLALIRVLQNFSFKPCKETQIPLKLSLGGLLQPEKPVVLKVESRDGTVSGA
Chain of CYP2D6 (P10635 whole entry): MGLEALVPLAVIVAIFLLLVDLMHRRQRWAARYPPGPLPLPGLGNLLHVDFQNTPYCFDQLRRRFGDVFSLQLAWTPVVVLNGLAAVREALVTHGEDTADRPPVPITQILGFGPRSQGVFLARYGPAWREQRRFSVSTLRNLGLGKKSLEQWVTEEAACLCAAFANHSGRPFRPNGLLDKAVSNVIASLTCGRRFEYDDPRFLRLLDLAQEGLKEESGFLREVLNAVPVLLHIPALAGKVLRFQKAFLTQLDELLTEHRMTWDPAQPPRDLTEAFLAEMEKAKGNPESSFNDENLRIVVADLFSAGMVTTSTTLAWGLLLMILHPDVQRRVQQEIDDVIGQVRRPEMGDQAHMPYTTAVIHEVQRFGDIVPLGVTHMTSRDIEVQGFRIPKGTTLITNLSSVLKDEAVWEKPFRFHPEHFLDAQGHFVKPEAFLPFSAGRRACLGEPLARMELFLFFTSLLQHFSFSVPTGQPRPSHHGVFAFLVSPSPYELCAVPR
Chain of CYP2C19 (P33261 whole entry): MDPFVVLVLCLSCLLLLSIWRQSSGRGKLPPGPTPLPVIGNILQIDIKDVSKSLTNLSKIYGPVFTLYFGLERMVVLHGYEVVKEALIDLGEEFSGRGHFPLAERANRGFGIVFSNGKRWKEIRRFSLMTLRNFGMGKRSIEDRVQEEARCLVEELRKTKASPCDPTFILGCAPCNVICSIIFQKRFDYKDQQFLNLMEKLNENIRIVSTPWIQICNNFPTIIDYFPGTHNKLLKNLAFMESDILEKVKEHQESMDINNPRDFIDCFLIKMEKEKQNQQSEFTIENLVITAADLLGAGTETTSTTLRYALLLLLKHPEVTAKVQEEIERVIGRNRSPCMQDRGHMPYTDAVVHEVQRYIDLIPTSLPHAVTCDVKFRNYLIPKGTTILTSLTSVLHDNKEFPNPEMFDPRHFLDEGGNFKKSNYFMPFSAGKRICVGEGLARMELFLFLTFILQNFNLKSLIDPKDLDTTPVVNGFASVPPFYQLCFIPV

Row | Compound | Functional Assay, Cpds/Ref 5182 [1] | Functional Assay at 10 μM (% of control), Cpds ([1]; 10 μM, 24 hours, AD293) | IC50 [2] | IC50 [3] | IC50 [4] | MS(Microsomal Stability) (%) human [5] | Papp at 5 h [6] | Functional Assay at 10 μM (% of control), Cpds [1] | MS(Microsomal Stability) (%) rat [7] | Functional Assay, Cpds/Ref 5182 [1, 16] | Permeability Pampa [6] | IC50 [8] | MS(Microsomal Stability) (%) mouse [9] | CYP inhibition (% of control) 3A4 [10] | CYP inhibition (% of control) 2C9 [11] | CYP inhibition (% of control) 2C19 [12] | CYP inhibition (% of control) 1A2 [13] | CYP inhibition (% of control) 2D6 [14] | MS(Microsomal Stability) (%) dog [15]
1 | OCCC/C(=C(\c1ccc(O)cc1)c1ccc(OCCN2CCCC2)cc1)c1ccccc1 [Compound 6e] | 1.82 | 5.61 % of control | > 10000 nM | 408 nM | 67 nM | – | – | – | – | – | – | – | – | – | – | – | – | – | –
2 | CN1CCC[C@H]1COc1ccc(/C(=C(/CCCO)c2ccccc2)c2ccc(Br)cc2)cc1 [Compound 13b] | 0.48 | – | – | – | 64 nM | 61.2% | 0.93 ×10⁻⁶ cm/s | 1.5 % of control | 66.2% | – | – | – | – | – | – | – | – | – | –
3 | CN1CCC[C@H]1CCOc1ccc(/C(=C(/CCCO)c2ccccc2)c2ccc(O)cc2)cc1 [Compound 6j] | – | 2.44 % of control | – | – | 34 nM | – | – | – | – | 0.77 | – | – | – | – | – | – | – | – | –
4 | Cc1ccc(/C(=C(\CCCO)c2ccccc2)c2ccc(C3CNC3)cc2)cc1 [Compound 20d] | – | – | – | – | – | 83% | – | – | 54% | – | 0.23 10^−6 cm/s | 15000 nM | 11.3% | – | – | – | – | – | –
5 | CC(C)N1CCC(c2ccc(/C(=C(/CCCO)c3ccccc3)c3ccc(O)cc3)cc2)CC1 [Compound 22k] | – | 0.77 % of control | > 10000 nM | 1380 nM | – | 59.7% | – | – | 69.0% | 0.83 | – | – | 23.4% | 74.7 % of control | 97 % of control | >100 % of control | >100 % of control | 73.7 % of control | 59.6%
6 | CC(C)N1CCN(c2ccc(/C(=C(/CCCO)c3ccccc3)c3ccc(Br)cc3)cc2)CC1 [Compound 18h] | – | 4.47 % of control | > 10000 nM | > 10000 nM | 32 nM | >100% | – | – | 74.2% | 1.09 | 0.37 10^−6 cm/s | – | 48.5% | 64.5 % of control | 96.9 % of control | 86.3 % of control | 93.5 % of control | 71.5 % of control | 64.4%
7 | CN1CCC[C@@H]1CCOc1ccc(/C(=C(/CCCO)c2ccccc2)c2ccc(O)cc2)cc1 [Compound 6k] | – | 2.5 % of control | – | – | 26 nM | – | 0.12 ×10⁻⁶ cm/s | – | – | 0.79 | – | – | – | – | – | – | – | – | –
